“Also recorded” adds a separate entry of the source.
How the values were obtained:
[1] = system: Shh-nLZ C/C; Dat-Cre mutant mice; experiment: Gait dynamics on treadmill (DigiGait) after acute L-Dopa or THP in mice with Shh ablation from DA neurons; assay type: in vivo, mouse; details: for increased absolute paw angle / reduced brake time / Brake-Stride ratio: 12 month old mutant animals; for reduced brake time / Brake-Stride ratio: THP 3 mg/kg IP, 30 minutes prior
Description: Given the involvement of the basal ganglia in the production of gait patterns, gait dynamics by ventral plane videography of mice walking on a translucent treadmill was investigated (Digigait system, Mouse specifics, Inc.), from which comparative temporal, spatial and force indices of gait were derived (Hampton et al., Physiol Behav. 2004 Sep. 15; 82(2-3):381-9; Amende et al., J Neuroeng Rehabil. 2005 Jul. 25; 2:20) of experimental and control animals from 3 to 16 months.
Either drug or vehicle control 30 minutes prior to the analysis of gait dynamics was injected in 12 month old animals. […] (FIG. 39D). […] (FIG. 39B). […] (FIG. 40C).
Gait dynamics by ventral plane videography of mice walking on a translucent treadmill (Digigait system, Mouse specifics, Inc.) were investigated, from which comparative temporal, spatial and force indices of gait were derived (Hampton et al., 2010) of Shh-nLZ^C/C; Dat-Cre—and control animals from 3 to 16 months of age (Table 1). Since altered posture can confound comparative gait analysis based on absolute measures, further analysis of locomotion on the tread mill was focused on gait length variability and relative indices of gait dynamics (relative time allotted to Swing, Brake, Propel and Stance phases) and foot angle. In Shh-nLZ^C/C; Dat-Cre mutants, gait length coefficient of variability was 30% increased at 10 months of age (FIG. 48C).
Many of the locomotion disturbances observed in Shh-nLZ^C/C; Dat-Cre were reminiscent of the functional hall marks of Parkinson's spectrum diseases which are characterized by a general impoverishment of locomotion, reduced fluidity of movement, difficulties in initiating and terminating locomotion, and increased stride length variability (Hausdorff et. al, 1998). Whether dopamine substitution by L-Dopa and the muscarinic antagonist trihexiphenidyl (THP), drugs of proven efficacy in the management of symptoms of PD related diseases, will modify acutely the locomotion deficits of Shh-nLZ^C/C; Dat-Cre mice, was tested.
Spontaneous motor activity was measured in an open field arena using automatic tracking at 6 Hz by an EthoVision 3.1 system (Noldus Information Technology, Leesburg, Va.). Derivation of acceleration and deceleration profiles and indices for turning bias and locomotion complexity is described below. Analysis of gait parameters by forced locomotion was performed by ventral plane videography on a translucent tread mill as described (Digigait, Inc.; Hampton et al., 2010).

[2] = system: Shh-nLZ C/C; Dat-Cre mutant mice; experiment: Kinematic analysis of spontaneous locomotion (open field) after L-Dopa or THP; assay type: in vivo, mouse; details: phase III mutant animals
Method: In particular, Bradykinesia is observed in PD. Bradykinesia is the slowed ability to start and continue movements, and impaired ability to adjust the body's position. […] There were no significant differences in the maximal speed that control and mutant mice can travel at (FIG. 40E). The relative time each animals spends at different speeds during acceleration and deceleration in individual locomotion bouts was analyzed. The numbers of “surges”, that are the reversals from acceleration to deceleration and back within a single locomotion bout, were quantitated. The “speed bin” analysis and quantitation of surges type is schematized in FIG. 40F.
Mesostriatal computations take part in the sequencing of locomotor activity and in the termination of ongoing actions (Jin and Costa, 2010; Ding et al., 2010). These processes can be partially assessed by analysis of the kinematic complexity of individual bouts of locomotion in freely ambulating mice (Benjamini et al. 2011; see also Other Results and Discussion). Quantifying the number of alternations from acceleration to deceleration and back in individual bouts of locomotion of similar duration and overall amplitude (FIG. 63G; see also Other Results and Discussion), a 100% increase in locomotive complexity of Shh-nLZ^C/C; Dat-Cre mutants in phase II but a 40% decrease in complexity in phase III compared to control littermates was observed (FIG. 48F). How much time animals spend traveling at different velocities during individual bouts of locomotion of similar length and amplitude was quantified next (see Other Results and Discussion). In phase II mice spend most time locomoting at initial and at top speeds with no discernable differences between Shh-nLZ; Dat-Cre mutants and control littermates (FIG. 64A-B). In phase III, however, Shh-nLZ^C/C; Dat-Cre animals spend 50% more time at low velocities and 80% less time at submaximal speed levels before reaching maximal velocity (FIG. 48K and FIG. 64C). Shh-nLZ^C/C; Dat-Cre animals also spend more time at sub-maximal speed levels after the animal reached peak velocities in a given bout compared to controls (FIG. 64D). […]
Spontaneous motor activity was measured in an open field arena using automatic tracking at 6 Hz by an EthoVision 3.1 system (Noldus Information Technology, Leesburg, Va.). […]
The open field arena was a polycarbonate cage 30×60×25 cm placed in a sound proof chamber. Locomotion of each mouse was recorded and tracked automatically for 10 minutes after habituation. Motor activity was measured as total distance traveled and turning bias was calculated as the net turning angle divided by distance (degrees/cm). Turning bias was calculated by subtracting the sum of ipsi- to contra-lateral movements and is independent of displacement (Spink et al., 2001).

[3] = system: Shh pathway; experiment: Cyclopamine injection into soleus/calf muscle; GDNF and CNTF expression by qtPCR; assay type: in vivo, mouse; details: for dose dependence of neurotrophic factor up-regulation: soleus of endstage G93A SOD animals, 0.5, 1, or 2 μg
[4] = system: Th expressing dopaminergic neurons in the substantia nigra pars compacta; experiment: MPTP paradigm with and without cyclopamine; stereological quantification of Th+ cells
[5] = system: SVZ proliferation; set-up: reduction in SVZ proliferation overall (PCNA) / reduction in proliferation in the C cell compartment (PCNA): concentration or dose not given beside the values; details: cited from earlier work; for reduction in SVZ proliferation overall (PCNA) / reduction in proliferation in the C cell compartment (PCNA): systemic MPTP or unilateral 6-OHDA into the nigro-striatal pathway
[6] = system: MPTP-lesioned mice; details: oral administration; cited from earlier work
[7] = target: T1, GDNF family receptor (GFR)α1 (Mus musculus, UniProt P97785); details: Neuro-2A cells; cited from earlier work
T1 construct: host or cells: Neuro-2A cells
T1 sequence (P97785 25-430): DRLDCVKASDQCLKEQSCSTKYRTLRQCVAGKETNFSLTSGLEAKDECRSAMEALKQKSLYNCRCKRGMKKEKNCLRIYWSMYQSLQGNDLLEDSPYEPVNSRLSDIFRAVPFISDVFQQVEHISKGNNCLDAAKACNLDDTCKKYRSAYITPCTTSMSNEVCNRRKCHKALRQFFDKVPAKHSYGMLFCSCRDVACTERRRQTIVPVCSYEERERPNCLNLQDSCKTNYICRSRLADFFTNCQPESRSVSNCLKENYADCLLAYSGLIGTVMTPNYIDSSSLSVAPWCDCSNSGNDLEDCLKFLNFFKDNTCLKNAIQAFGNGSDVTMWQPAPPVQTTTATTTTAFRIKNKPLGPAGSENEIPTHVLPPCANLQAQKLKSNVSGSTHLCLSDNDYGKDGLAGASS

[8] = system: medial forebrain bundle (mFB); experiment: Unilateral 6-OHDA injection into the medial forebrain bundle; turning bias and gene expression; assay type: in vivo, mouse; details: for Shh transcription in the vMB: wt and heterozygous GDNF mutant mice
[9] = system: ALS patients; details: cited from earlier work
[10] = unilateral injection into the soleus of 125 day old G93A SOD transgenic animals
[11] = single systemic dose 1 hour prior to brain harvest
[12] = unilateral striatal deafferentation (Winner et al. 2006)

## OC(CCN1CCCCC1)(c1ccccc1)C1CCCCC1 (centres unmarked) [THP, Trihexyphenidyl]
[1]
  increased absolute paw angle: not by THP
[1]; L-Dopa 20 mg/kg SC
  reduced brake time / Brake-Stride ratio: normalized by THP; also recorded: normalized Brake Stride ratios to control levels; also recorded: normalized Brake-Stride ratios to control levels
[2]
  deficits in the initiation of acceleration and deceleration (time at low speeds): partially normalized; also recorded: normalize the deficit during locomotion initiation; also recorded: ameliorated the deficits in the initiation of acceleration and deceleration; also recorded: ameliorate the deficits at low speeds
  time spent locomoting at high / sub-maximal speeds: Neither drug effected the time spend locomoting at sub-maximal speeds; also recorded: not those observed at higher speeds; also recorded: neither drug normalized the time; also recorded: do not normalize the differences at high locomotion speeds

## CC1=C2C[C@H]3[C@@H](CC=C4C[C@@H](O)CC[C@@]43C)[C@@H]2CC[C@]12O[C@@H]1C[C@H](C)CN[C@H]1[C@H]2C [cyclopamine]
[3]; injection into calf muscles of control animals
  up regulation of GDNF expression in the muscle: 20 fold
[3]; injection into limb muscle of wild type (wt) and G93A SOD1 mice
  effect on GDNF expression in adult muscles: up regulation of GDNF expression
[3]; injection into the calf muscles of end stage G93A SOD mice
  up-regulation of CNTF: 20 fold
[3]; right soleus of 125 day old G93A SOD transgenic animals, 1 mg of Cyclopamine, 30 h post injection
  maximal up regulation of GDNF, fold change in gene expression over control side: 27 fold
[3]; right soleus of 125 day old G93A SOD transgenic animals, 2 mg of cyclopamine, 30 h post injection
  maximal upregulation of CNTF, fold change in gene expression over control side: 20 fold
[3]
  dose dependence of neurotrophic factor up-regulation: dose dependent up-regulation of neurotrophic factor expression
[3]; listed as Cyclopamine
  dose dependence of neurotrophic factor up-regulation: dose dependent up-regulation of GDNF and CNTF
[3]; [10]
  increase in CNTF expression over the saline injected contra lateral control soleus: 8 fold
  increase in GDNF expression over the saline injected contra lateral control soleus: 12 fold
[4]; MPTP plus cyclopamine 50 mg/kg/day by osmotic micropump, n=1
  reduction in Th+ cells in the ventral midbrain compared to control animals: 21%
[4]; MPTP plus cyclopamine 50 mg/kg/day, n=1
  effect on MPTP induced neurodegeneration: statistically significant reduction in neurodegeneration

## CCCN(CCC)CCc1cccc2c1CC(=O)N2 [Ropinirole]
[5]; [11]
  mitotic activity of the SVZ (PCNA+ cells) on the lesioned side: restores the mitotic activity of the SVZ
  proliferative index on the unlesioned side: increases the proliferative index on the unlesioned side

## CN1CC=C(c2ccccc2)CC1 [MPTP, 1-methyl-4-phenyl-1,2,3,6-tetrahydropyridine]
[5]
  reduction in SVZ proliferation overall (PCNA): 40%
  reduction in proliferation in the C cell compartment (PCNA): 50%
[4]; MPTP 30 mg/kg/day for 4 days, day 33, n=5
  reduction in the numbers of Th+ cells compared to vehicle controls: 39%

## N[C@@H](Cc1ccc(O)c(O)c1)C(=O)O [L-Dopa, Levodopa]
[1]
  increased absolute paw angle: normalized the alterations in paw angles
[1]; L-Dopa 20 mg/kg SC
  reduced brake time / Brake-Stride ratio: did not correct the reduction in brake time
[1]; L-Dopa 20 mg/kg SC, listed as L-DOPA
  reduced brake time / Brake-Stride ratio: not L-DOPA
[1]; listed as L-DOPA
  increased absolute paw angle: normalized by L-DOPA
[1]; experimental and control animals, L-Dopa 20 mg/kg SC
  Brake-Stride ratios: reduced Brake-Stride ratios in both experimental and control animals
[2]
  deficits in the initiation of acceleration and deceleration (time at low speeds): partially normalized; also recorded: normalize the deficit during locomotion initiation; also recorded: ameliorated the deficits in the initiation of acceleration and deceleration; also recorded: ameliorate the deficits at low speeds
  time spent locomoting at high / sub-maximal speeds: Neither drug effected the time spend locomoting at sub-maximal speeds; also recorded: not those observed at higher speeds; also recorded: neither drug normalized the time; also recorded: do not normalize the differences at high locomotion speeds

## C[C@H]1CC[C@@]2(OC1)O[C@H]1C[C@H]3[C@@H]4CC[C@@H]5C[C@@H](O)CC[C@]5(C)[C@H]4CC[C@]3(C)[C@H]1[C@@H]2C [PYM50028]
[6]
  loss of dopaminergic neurons from the substantia nigra: attenuated the loss of dopaminergic neurons from the substantia nigra
  striatal GDNF: significant elevation of striatal GDNF

## CCN(CC)CCCC(C)Nc1cc(/C=C/c2ccccc2Cl)nc2cc(Cl)ccc12 (centres unmarked) [XIB4035]
[7]
  neurotrophic effects: mimics the neurotrophic effects of GDNF

## NCCc1cc(O)c(O)cc1O [6-OHDA, 6-hydroxy-dopamine]
[8]
  GDNF and ChAT transcription in the striatum: ipsi-lateral up-regulation of GDNF and ChAT transcription in the striatum
  expression of Th in the vMB: not affected
  turning bias: contra lateral turning bias
  Shh transcription in the vMB: up-regulation of Shh transcription in the ipsilateral ventral midbrain
[8]; listed as 6 OH-DA
  Shh transcription in the vMB: ipsi-lateral up-regulation of Shh transcription in the vMB
[8]; wt animals
  GDNF transcription in the striatum: No up regulation of GDNF transcription was detected
[5]
  reduction in SVZ proliferation overall (PCNA): 40%
  reduction in proliferation in the C cell compartment (PCNA): 50%
[5]; [12]
  increase in the production of newly born Pax6+, TH+ periglomerular DA neurons in the olfactory bulb ipsilateral to the lesion: threefold
  reduction in proliferation within the SVZ: 40%

## Nc1nc2ccc(OC(F)(F)F)cc2s1 [Riluzole]
[9]
  measures of function: has not been shown to have significant effect on measures of function

— US20120082623A1, “SHH Regulation and Methods Thereof” (priority 2009, published 2012)
